The values below are quoted from earlier work in patent US6852845B1, “Method of identifying toxic agents using NSAID-induced differential gene expression in liver” (Curagen Corporation, priority 1999, dated 2005).

For data set [1], the system named is liver. The conditions noted are these: risk class assigned to each NSAID (low, very low, overdose risk).
In data set [2] the test system is liver. The conditions noted are these: injury type classes of Table 5: hepatocellular damage, cholestasis, elevated transaminase level.

In the case of `CCOc1ccc(NC(C)=O)cc1` [Phenacetin], in the data set with liver [1], the “Hepatotoxicity Risk of NSAIDs: Risk” value is given as “Overdose Risk”.
For `Nc1c(CC(=O)O)cccc1C(=O)c1ccc(Br)cc1` [Bromfenac], the “Hepatotoxicity Risk of NSAIDs: Risk” value in the data set with liver [1] was “Low Risk”.
On to `CC(C(=O)O)c1ccc(-c2ccccc2)c(F)c1` (stereo not shown) [Flurbiprofen], for which the “Hepatotoxicity Risk of NSAIDs: Risk” value with liver [1] is “Very Low Risk”. Moreover, the “type of hepatoxicity injury induced by the NSAID” value (“type” below) in the data set with liver [2] is given as “hepatocellular damage”.
Consider `CCc1cccc2c3c([nH]c12)C(CC)(CC(=O)O)OCC3` (stereo not shown) [Etodolac], for which the “Hepatotoxicity Risk of NSAIDs: Risk” value in the data set on liver [1] was “Very Low Risk”.
`CC(C(=O)O)c1ccc(C(=O)c2cccs2)cc1` (stereo not shown) [Suprofen]: the “Hepatotoxicity Risk of NSAIDs: Risk” value with liver [1] is listed as “Very Low Risk”.
On to `CC(C(=O)O)c1cccc(Oc2ccccc2)c1` (stereo not shown) [Fenoprofen], for which, in the data set on liver [1], the “Hepatotoxicity Risk of NSAIDs: Risk” value was “Very Low Risk”.
Take `CC(C(=O)O)c1cccc(C(=O)c2ccccc2)c1` (stereo not shown) [Ketoprofen]: the “Hepatotoxicity Risk of NSAIDs: Risk” value with liver [1] is recorded as “Very Low Risk”.
Take `Cc1ccc(C(=O)c2ccc(CC(=O)O)n2C)cc1` [Tolmentin]: the “Hepatotoxicity Risk of NSAIDs: Risk” value with liver [1] is given as “Very Low Risk”.
In the case of `Cc1ccc(Cl)c(Nc2ccccc2C(=O)O)c1Cl` [Meclofenamate], the “Hepatotoxicity Risk of NSAIDs: Risk” value in the data set with liver [1] is “Very Low Risk”.
Regarding `Cc1cccc(Nc2ccccc2C(=O)O)c1C` [Mefenamic Acid], in the data set on liver [1], the “Hepatotoxicity Risk of NSAIDs: Risk” value is on record as “Very Low Risk”. The “type” value with liver [2] is “elevated transaminase level”.
`O=C(O)CCc1nc(-c2ccccc2)c(-c2ccccc2)o1` [Oxaprozin]: the “Hepatotoxicity Risk of NSAIDs: Risk” value with liver [1] was “Very Low Risk”.
`Cc1cc(CC(=O)O)n(C)c1C(=O)c1ccc(Cl)cc1` [Zomepirac]: the “Hepatotoxicity Risk of NSAIDs: Risk” value in the data set with liver [1] is given as “Very Low Risk”. The “type” value with liver [2] is recorded as “elevated transaminase level”.
Consider `CC(C(=O)O)c1ccc2oc(-c3ccc(Cl)cc3)nc2c1` (stereo not shown) [Benoxaprofen], for which the “Hepatotoxicity Risk of NSAIDs: Risk” value in the data set on liver [1] is “Low Risk”. In addition, the “type” value with liver [2] is reported as “cholestatis-inducing”.
As for `CCCCC1C(=O)N(c2ccccc2)N(c2ccccc2)C1=O` [Phenylbutazone], the “Hepatotoxicity Risk of NSAIDs: Risk” value with liver [1] is reported as “Low Risk”.
On to `O=C(O)Cc1ccccc1Nc1c(Cl)cccc1Cl` [Diclofenac], for which the “Hepatotoxicity Risk of NSAIDs: Risk” value with liver [1] is “Low Risk”.
Turning to `COc1ccc2cc(CCC(C)=O)ccc2c1` [Nabumetone], the “Hepatotoxicity Risk of NSAIDs: Risk” value in the data set with liver [1] was “Very Low Risk”. Further, in the data set on liver [2], the “type” value was “cholestatis-inducing”.
Consider `CC(=O)Oc1ccccc1C(=O)O` [Acetylsalicylic Acid], for which the “Hepatotoxicity Risk of NSAIDs: Risk” value in the data set with liver [1] is given as “Overdose Risk”.
On to `CN1C(C(=O)Nc2ccccn2)=C(O)c2sccc2S1(=O)=O` [Tenoxicam], for which the “Hepatotoxicity Risk of NSAIDs: Risk” value with liver [1] is reported as “Very Low Risk”. Also, the “type” value in the data set with liver [2] is given as “elevated transaminase level”.
Consider `CN1C(C(=O)Nc2ccccn2)=C(O)c2ccccc2S1(=O)=O` [Piroxicam], for which the “Hepatotoxicity Risk of NSAIDs: Risk” value with liver [1] was “Very Low Risk”.
With `COc1ccc2c(c1)c(CC(=O)O)c(C)n2C(=O)c1ccc(Cl)cc1` [Indomethacin], the “Hepatotoxicity Risk of NSAIDs: Risk” value in the data set on liver [1] is recorded as “Very Low Risk”.
Consider `CC1=C(CC(=O)O)c2cc(F)ccc2/C1=C\c1ccc([S+](C)[O-])cc1` (stereo not shown) [Sulindac], for which the “Hepatotoxicity Risk of NSAIDs: Risk” value in the data set with liver [1] is “Low Risk”. In the data set with liver [2], the “type” value is recorded as “cholestatis-inducing”.
